Three compounds from patent US9879050B2, “Substituted urea depsipeptide analogs as activators of the CLPP endopeptidase” (priority 2013, dated 2018) can be followed below.

The structures appear in SMILES notation. Converted amounts (≈) assume the structure as drawn.

Assay [1] has as its target T1, Sa-ClpP (Staphylococcus aureus, UniProt Q2G036).
T1 construct: made in house; host or cells: E. coli BL21 (DE3)
Kind of assay: ClpP activation, EnzCheck Protease Assay with Bodipy-FL casein (second described method). It counts as biochemical, S. aureus. The settings on record: read-out: ClpP Activation EC50 (converted). The procedure, abridged:
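Sa-ClpP (2 μM in master mix) with Bodipy-FL casein (2 μM in master mix) in Tris-HCl pH 8.0, 0.01% Triton X-100, compounds in 2% DMSO, triplicate. Fluorescence (ex 485/em 520 nm) followed 30 min; degradation slopes normalized to ADEP4 and DMSO controls, EC50 and % activation by four-parameter fit.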

In assay [2] the target is T1, Sa-ClpP. Kind of assay: ADEP displacement fluorescence polarization assay. The settings on record: 1 μM Sa-ClpP, 50 nM FP probe ADEP 2591; read-out: ADEP Displacement IC50. It counts as binding, S. aureus. The procedure, abridged:
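Displacement of TAMRA-labelled ADEP 2591 probe (50 nM) from 1 μM Sa-ClpP, pre-equilibrated 1 h in Tris·HCl pH 8.0 with 2% DMSO, then 120 min at room temperature with compound, triplicate. Polarization (mP) read ex 530/em 579 nm, normalised to 20 μM ADEP 2378 and DMSO controls; four-parameter fit.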

The subject of assay [3] is B. subtilis ATCC 23857. Description: Minimal inhibitory concentration, microbroth dilution. It is filed as cell-based. Conditions: Bacillus subtilis, ATCC23857, read-out: Minimal Inhibitory Concentration B. subtilis ATCC 23857. The procedure, abridged: (§1)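 Susceptibility testing used the CLSI dilution standard, with bacteria at ~10^5 cfu/mL exposed to a two-fold compound series beginning at 200 μM final. The endpoint is the lowest concentration showing no growth after overnight incubation (37 °C, aerobic).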

The subject of assay [4] is S. aureus ATCC 29213. The assay is described as above. It counts as cell-based. The settings on record: Staphylococcus aureus, ATCC29213, read-out: Minimal Inhibitory Concentration S. aureus ATCC 29213. The procedure, abridged:
as §1

T1 sequence (Q2G036 whole entry): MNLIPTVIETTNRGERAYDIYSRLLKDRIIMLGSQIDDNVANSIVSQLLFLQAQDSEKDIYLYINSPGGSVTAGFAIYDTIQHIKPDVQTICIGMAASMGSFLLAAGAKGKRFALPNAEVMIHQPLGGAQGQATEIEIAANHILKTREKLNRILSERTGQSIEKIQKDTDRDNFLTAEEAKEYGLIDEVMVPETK

Usually EC50 stands for the concentration needed to bring the measured effect to its halfway point. In general, IC50 refers to the concentration at which inhibition is half-maximal. On to `C[C@H]1C[C@H]2C(=O)O[C@@H](C)[C@H](NC(=O)[C@H](Cc3cc(F)cc(F)c3)NC(=O)Nc3ccc(C(F)(F)F)cc3)C(=O)N3CCC[C@H]3C(=O)N3CCCC[C@H]3C(=O)N[C@@H](C)C(=O)N2C1` [Compound 19, (S)-3-(3,5-Difluorophenyl)-2-(3-(4-(Trifluoromethyl)Phenyl)Ureido)-N-((2R,6S,8aS,14aS,20S,21S,23aS)-2,6,21-Trimethyl-5,8,14,19,23-Pentaoxooctadecahydro-1H,5H,14H,19H-Pyrido[2,1-I]Dipyrrolo[2,1-C:2′,1′-L][1]Oxa[4,7,10,13]Tetraazacyclohexadecin-20-Yl)Propanamide], for which the 50% effective concentration (EC50) in assay [1] was 0.33 µM. Further, the IC50 in assay [2] worked out at 5.7 ± 0.3 µM. Further, the MIC in assay [3] was below 0.1 µM; in assay [4], 0.1 µM (≈ 0.0862 µg/mL).

`Cc1ccc(NC(=O)N[C@@H](Cc2ccccc2)C(=O)N[C@H]2COC(=O)[C@@H]3C[C@@H](C)CN3C(=O)[C@H](C)NC(=O)[C@@H]3CCCCN3C(=O)[C@@H]3CCCN3C2=O)cc1` [Compound 23, (S)—N-((2R,6S,8aS,14aS,20S,23aS)-2,6-Dimethyl-5,8,14,19,23-Pentaoxooctadecahydro-1H,5H,14H,19H-Pyrido[2,1-I]Dipyrrolo[2,1-C:2′,1′-L][1]Oxa[4,7,10,13]Tetraazacyclohexadecin-20-Yl)-3-Phenyl-2-(3-(P-Tolyl)Ureido)Propanamide]: in assay [1], the EC50 is 0.5 µM. Also, in assay [2], the IC50 came to 7.1 ± 0.3 µM. The MIC was below 0.2 µM in assay [3] and 0.4 µM (≈ 0.303 µg/mL) in assay [4].

As for `Cc1ccc(NC(=O)N[C@@H](Cc2cc(F)cc(F)c2)C(=O)N[C@H]2COC(=O)[C@@H]3C[C@@H](C)CN3C(=O)[C@H](C)NC(=O)[C@@H]3CCCCN3C(=O)[C@@H]3CCCN3C2=O)cc1` [Compound 24, (S)-3-(3,5-Difluorophenyl)-N-((2R,6S,8aS,14aS,20S,23aS)-2,6-Dimethyl-5,8,14,19,23-Pentaoxooctadecahydro-1H,5H,14H,19H-Pyrido[2,1-I]Dipyrrolo[2,1-C:2′,1′-L][1]Oxa[4,7,10,13]Tetraazacyclohexadecin-20-Yl)-2-(3-(P-Tolyl)Ureido)Propanamide], the EC50 in assay [1] is 0.4 µM. Moreover, the IC50 in assay [2] is 8.6 ± 0.5 µM. Further, the MIC in assay [3] came out at 2.2 µM (≈ 1.75 µg/mL); in assay [4], 0.5 µM (≈ 0.397 µg/mL).
